The structures appear in SMILES notation.

In one test the target is T1, mTOR (Homo sapiens, UniProt P42345).
T1 construct: FLAG; made in house
T1 sequence (P42345 1362-2549): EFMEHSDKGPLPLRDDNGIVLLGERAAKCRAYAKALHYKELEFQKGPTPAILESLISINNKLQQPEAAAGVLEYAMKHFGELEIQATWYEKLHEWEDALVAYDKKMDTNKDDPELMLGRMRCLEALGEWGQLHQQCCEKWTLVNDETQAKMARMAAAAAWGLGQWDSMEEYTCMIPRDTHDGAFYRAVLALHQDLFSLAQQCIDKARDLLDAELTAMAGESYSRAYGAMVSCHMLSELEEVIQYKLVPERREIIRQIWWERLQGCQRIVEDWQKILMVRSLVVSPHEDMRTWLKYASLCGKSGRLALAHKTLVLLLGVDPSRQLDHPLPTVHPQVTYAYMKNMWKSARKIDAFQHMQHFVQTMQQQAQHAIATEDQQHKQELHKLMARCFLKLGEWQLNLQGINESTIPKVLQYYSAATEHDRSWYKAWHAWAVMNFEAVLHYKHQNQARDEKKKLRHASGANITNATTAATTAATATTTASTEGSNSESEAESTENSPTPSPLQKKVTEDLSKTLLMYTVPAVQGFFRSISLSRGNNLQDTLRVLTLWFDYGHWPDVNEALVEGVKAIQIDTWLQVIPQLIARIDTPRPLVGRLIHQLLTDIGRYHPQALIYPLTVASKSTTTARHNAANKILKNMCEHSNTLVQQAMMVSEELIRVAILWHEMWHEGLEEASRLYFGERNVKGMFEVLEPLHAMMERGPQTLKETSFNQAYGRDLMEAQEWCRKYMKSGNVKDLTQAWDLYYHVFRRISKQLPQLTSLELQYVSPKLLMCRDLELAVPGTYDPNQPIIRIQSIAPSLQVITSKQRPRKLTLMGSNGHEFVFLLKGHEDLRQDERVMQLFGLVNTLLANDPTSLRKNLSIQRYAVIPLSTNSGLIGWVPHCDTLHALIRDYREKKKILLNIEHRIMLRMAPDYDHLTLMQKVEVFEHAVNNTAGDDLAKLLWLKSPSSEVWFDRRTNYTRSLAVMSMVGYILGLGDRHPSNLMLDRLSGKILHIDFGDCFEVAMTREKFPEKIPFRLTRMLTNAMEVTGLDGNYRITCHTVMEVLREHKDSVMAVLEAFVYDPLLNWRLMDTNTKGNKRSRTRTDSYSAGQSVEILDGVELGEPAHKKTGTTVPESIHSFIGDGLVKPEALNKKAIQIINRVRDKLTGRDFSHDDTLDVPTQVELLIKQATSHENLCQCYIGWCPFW
As to the kind of experiment: In Vitro mTOR Kinase Assay (Echo), Test (a)(ii). The class given is biochemical. The settings on record: read-out: mTOR Kinase Assay (Echo). In short, it runs like this:
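FLAG-tagged human mTOR truncation (residues 1362-2549) expressed in HEK293 cells and FLAG-purified. Compounds dispensed acoustically, reaction 2 h at room temperature, stopped with EDTA. Phosphorylation of biotinylated peptide detected by AlphaScreen with anti-p70 S6K (T389) antibody overnight; IC50 reported.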
In the case of `C[C@H]1COCCN1c1cc(C2(S(C)(=O)=O)CCCC2)nc(-c2ccc(NC(=O)NCCN(C)C)cc2)n1` [Example 4g, 3-(2-dimethylaminoethyl)-1-[4-[4-[(3S)-3-methylmorpholin-4-yl]-6-(1-methylsulfonylcyclopentyl)pyrimidin-2-yl]phenyl]urea], the IC50 amounted to 62.6 nM.
The same measure, in the same setting: as for `C[C@H]1COCCN1c1cc(C2(S(=O)(=O)C3CC3)CC2)nc(-c2ccc(NC(=O)Nc3ncns3)cc2)n1` [Example 3w, 1-[4-[4-(1-cyclopropylsulfonylcyclopropyl)-6-[(3S)-3-methylmorpholin-4-yl]pyrimidin-2-yl]phenyl]-3-(1,2,4-thiadiazol-5-yl)urea], the figure is 0.89 nM; as for `CCCNC(=O)Nc1ccc(-c2nc(N3CCOC[C@@H]3C)cc(C3(S(=O)(=O)c4ccccc4C(F)(F)F)CC3)n2)cc1` [Example 10h, 3-[4-[4-[(3S)-3-methylmorpholin-4-yl]-6-[1-[2-(trifluoromethyl)phenyl]sulfonylcyclopropyl]pyrimidin-2-yl]phenyl]-1-propyl-urea], 26.8 nM.
Take `CNC(=O)Nc1ccc(-c2nc(N3CCOC[C@@H]3C)cc(C3(S(=O)(=O)C(C)C)CC3)n2)cc1` [Example 7, 3-Methyl-1-[4-[4-[(3S)-3-methylmorpholin-4-yl]-6-(1-propan-2-ylsulfonylcyclopropyl)pyrimidin-2-yl]phenyl]urea]: the IC50 amounted to 3.15 nM.
On the same count and under the same terms, in the case of `CC(C)S(=O)(=O)C1(c2cc(N3CCOC[C@@H]3C)nc(-c3ccc(NC(=O)NCCCO)cc3)n2)CC1` [Example 7j, 3-(3-hydroxypropyl)-1-[4-[4-[(3S)-3-methylmorpholin-4-yl]-6-(1-propan-2-ylsulfonylcyclopropyl)pyrimidin-2-yl]phenyl]urea] it was 10.5 nM.
Still for that read-out and setting: in the case of `CCCNC(=O)Nc1ccc(-c2nc(N3CCOC[C@@H]3C)cc(C3(S(=O)(=O)c4ccncc4)CC3)n2)cc1` [Example 6g, 1-[4-[4-[(3S)-3-methylmorpholin-4-yl]-6-(1-pyridin-4-ylsulfonylcyclopropyl)pyrimidin-2-yl]phenyl]-3-propyl-urea] it was 2.25 nM.
The same measure, in the same setting: as for `CC(C)NC(=O)Nc1ccc(-c2nc(N3CCOC[C@@H]3C)cc(C3(S(=O)(=O)c4ccc(F)cc4)CC3)n2)cc1` [Example 8c, 1-[4-[4-[1-(4-fluorophenyl)sulfonylcyclopropyl]-6-[(3S)-3-methylmorpholin-4-yl]pyrimidin-2-yl]phenyl]-3-propan-2-yl-urea], the figure is 1.85 nM.

The same test, now with this note: table of enzyme assay Test (a)(ii); read-out: Test (a)(ii) IC50.
On to `CCCNC(=O)Nc1ccc(-c2nc(N3CCOC[C@@H]3C)cc(C3(S(=O)(=O)c4ccccn4)CC3)n2)cc1` [Example 28h, 3-[4-[4-[(3S)-3-methylmorpholin-4-yl]-6-(1-pyridin-2-ylsulfonylcyclopropyl)pyrimidin-2-yl]phenyl]-1-propylurea], for which the IC50 was 0.93 nM.
The same measure, in the same setting: as for `C[C@H]1COCCN1c1cc(C2(S(C)(=O)=O)CCNCC2)nc(-c2ccc(NC(=O)Nc3cnn(C)c3)cc2)n1` [Example 20d, 1-[4-[4-[(3S)-3-methylmorpholin-4-yl]-6-(4-methylsulfonylpiperidin-4-yl)pyrimidin-2-yl]phenyl]-3-(1-methylpyrazol-4-yl)urea], the figure is 13.3 nM.
The same measure, in the same setting: in the case of `C[C@H]1COCCN1c1cc(C2(S(=O)(=O)C3CC3)CCC2)nc(-c2ccc(NC(=O)Nc3cnn(C)c3)cc2)n1` [Example 36h, 1-[4-[4-(1-cyclopropylsulfonylcyclobutyl)-6-[(3S)-3-methylmorpholin-4-yl]pyrimidin-2-yl]phenyl]-3-(1-methylpyrazol-4-yl)urea] it was 3.14 nM; in that of `CCNC(=O)Nc1ccc(-c2nc(N3CCOC[C@@H]3C)cc(C3(S(=O)(=O)C4CCOC4)CC3)n2)cc1` (stereo partly drawn) [Example 94h, 1-ethyl-3-[4-[4-[(3S)-3-methylmorpholin-4-yl]-6-[1-(oxolan-3-ylsulfonyl)cyclopropyl]pyrimidin-2-yl]phenyl]urea], 11.6 nM.
On the same count and under the same terms, as for `CNC(=O)Nc1ccc(-c2nc(N3CCOC[C@@H]3C)cc(C3(S(=O)(=O)C4CCOC4)CC3)n2)cc1` (stereo partly drawn) [Example 94g, 3-methyl-1-[4-[4-[(3S)-3-methylmorpholin-4-yl]-6-[1-(oxolan-3-ylsulfonyl)cyclopropyl]pyrimidin-2-yl]phenyl]urea], the figure is 12.7 nM.
`C[C@H]1COCCN1c1cc(C2(S(=O)(=O)c3ccc(F)cc3)CC2)nc(-c2ccc(NC(=O)Nc3cnn(C)c3)nc2)n1` [Example 14m, 1-[5-[4-[1-(4-fluorophenyl)sulfonylcyclopro-pyl]-6-[(3S)-3-methylmorpholin-4-yl]pyrimidin-2-yl]pyridin-2-yl]-3-(1-methylpyrazol-4-yl)urea]: the IC50 amounted to 14.3 nM.
Same read-out and setting: as for `C[C@H]1COCCN1c1cc(C2(S(=O)(=O)C3CC3)CCNCC2)nc(-c2ccc(NC(=O)Nc3cnn(C)c3)cc2)n1` [Example 21c, 1-[4-[4-(4-cyclopropylsulfonylpiperidin-4-yl)-6-[(3S)-3-methylmorpholin-4-yl]pyrimidin-2-yl]phenyl]-3-(1-methylpyrazol-4-yl)urea], the figure is 23.4 nM; as for `CCNC(=O)Nc1ccc(-c2nc(N3CCOC[C@@H]3C)cc(C3(S(C)(=O)=O)CC3)n2)cc1F` [Example 52b, 3-ethyl-1-[2-fluoro-4-[4-[(3S)-3-methylmorpholin-4-yl]-6-(1-methylsulfonylcyclopropyl)pyrimidin-2-yl]phenyl]urea], 30.7 nM; as for `C[C@H]1COCCN1c1cc(C2(S(=O)(=O)c3ccccc3)CC2)nc(-c2ccc(NC(=O)N3CCC(O)C3)cc2)n1` (stereo partly drawn) [Example 36do, N-[4-[4-[1-(benzenesulfonyl)cyclopropyl]-6-[(3S)-3-methylmorpholin-4-yl]pyrimidin-2-yl]phenyl]-3-hydroxypyrrolidine-1-carboxamide], 27.7 nM.
Still for that read-out and setting: in the case of `C[C@H]1COCCN1c1cc(C2(S(C)(=O)=O)CC2)nc(-c2ccc(NC(=S)NC3CC3)cc2)n1` [Example 35d, 3-cyclopropyl-1-[4-[4-[(3S)-3-methylmorpholin-4-yl]-6-(1-methylsulfonylcyclopropyl)pyrimidin-2-yl]phenyl]thiourea] it was 4.11 nM.
The same measure, in the same setting: in the case of `CNC(=O)Nc1ccc(-c2nc(N3CCOC[C@@H]3C)cc(C3(S(=O)(=O)c4cc(F)ccc4C)CC3)n2)cc1` [Example 61, 1-[4-[4-[1-(5-Fluoro-2-methylphenyl)sulfonylcyclopropyl]-6-[(3S)-3-methylmorpholin-4-yl]pyrimidin-2-yl]phenyl]-3-methylurea] it was 26.9 nM; in that of `CC(C)CNC(=O)Nc1ccc(-c2nc(N3CCOC[C@@H]3C)cc(C3(S(=O)(=O)C(C)(C)C)CC3)n2)cc1` [Example 18c, 1-[4-[4-(1-tert-butylsulfonylcyclopropyl)-6-[(3S)-3-methylmorpholin-4-yl]pyrimidin-2-yl]phenyl]-3-(2-methylpropyl)urea], 32 nM; in that of `C[C@H]1COCCN1c1cc(C2(S(=O)(=O)c3nccs3)CCC2)nc(-c2ccc(NC(=O)NCc3ncc[nH]3)cc2)n1` [Example 98i, 3-(1H-imidazol-2-ylmethyl)-1-[4-[4-[(3S)-3-methylmorpholin-4-yl]-6-[1-(1,3-thiazol-2-ylsulfonyl)cyclobutyl]pyrimidin-2-yl]phenyl]urea], 28.5 nM.
For `CCNC(=O)Nc1ccc(-c2nc(N3CCOCC3)cc(C3(S(=O)(=O)CCO)CC3)n2)cc1` [Example 47b, 3-ethyl-1-[4-[4-[1-(2-hydroxyethylsulfonyl)cyclopropyl]-6-morpholin-4-ylpyrimidin-2-yl]phenyl]urea], the IC50 stood at 14.9 nM.
For `CCNC(=S)Nc1ccc(-c2nc(N3CCOC[C@@H]3C)cc(C3(S(=O)(=O)CCCO)CCC3)n2)cc1` [Example 99e, 1-ethyl-3-[4-[4-[1-(3-hydroxypropylsulfonyl)cyclobutyl]-6-[(3S)-3-methylmorpholin-4-yl]pyrimidin-2-yl]phenyl]thiourea], the IC50 was found to be 31.7 nM.
The same measure, in the same setting: in the case of `Cc1nn(C)cc1S(=O)(=O)C1(c2cc(N3CCOC[C@@H]3C)nc(-c3ccc(NC(=O)NCCO)cc3)n2)CC1` [Example 55b, 1-[4-[4-[1-(1,3-dimethylpyrazol-4-yl)sulfonylcyclopropyl]-6-[(3S)-3-methylmorpholin-4-yl]pyrimidin-2-yl]phenyl]-3-(2-hydroxyethyl)urea] it was 16.1 nM; in that of `CNC(=O)Nc1ccc(-c2nc(N3CCOC[C@@H]3C)cc(C3(S(=O)(=O)C4CCCCC4)CC3)n2)cc1` [Example 26e, 1-[4-[4-(1-cyclohexylsulfonylcyclopropyl)-6-[(3S)-3-methylmorpholin-4-yl]pyrimidin-2-yl]phenyl]-3-methylurea], 3.95 nM.
On the same count and under the same terms, as for `C[C@H]1COCCN1c1cc(C2(S(=O)(=O)c3ccc(C#N)cc3)CC2)nc(-c2ccc(NC(=O)NCCF)cc2)n1` [Example 77e, 1-[4-[4-[1-(4-cyanophenyl)sulfonylcyclopropyl]-6-[(3S)-3-methylmorpholin-4-yl]pyrimidin-2-yl]phenyl]-3-(2-fluoroethyl)urea], the figure is 5.17 nM.
Regarding `CCCNC(=O)Nc1ccc(-c2nc(N3CCOC[C@@H]3C)cc(C3(S(=O)(=O)CCCO)CCOCC3)n2)cc1` [Example 36cf, 3-[4-[4-[4-(3-hydroxypropylsulfonyl)oxan-4-yl]-6-[(3S)-3-methylmorpholin-4-yl]pyrimidin-2-yl]phenyl]-1-propylurea], the IC50 came out at 286 nM.
In the case of `CN(C)CCNC(=O)Nc1ccc(-c2nc(N3CCOCC3)cc(C3(S(=O)(=O)C4CC4)CC3)n2)cc1` [Example 13f, 1-[4-[4-(1-cyclopropylsulfonylcyclopropyl)-6-morpholin-4-ylpyrimidin-2-yl]phenyl]-3-(2-dimethylaminoethyl)urea], the IC50 was found to be 386 nM.
Same read-out and setting: in the case of `C[C@H]1COCCN1c1cc(C2(S(=O)(=O)c3ccc(F)c(Cl)c3)CC2)nc(-c2ccc(NC(=O)NCCF)cc2)n1` [Example 95d, 1-[4-[4-[1-(3-chloro-4-fluorophenyl)sulfonyl-cyclopropyl]-6-[(3S)-3-methylmorpholin-4-yl]pyrimidin-2-yl]phenyl]-3-(2-fluoroethyl)urea] it was 12.6 nM.

The record behind these values is patent US20090018134A1, “Compounds - 945” (AstraZeneca AB, priority 2007, published 2009).
